Reference: patent US11420962B2, “Indene derivatives useful in treating pain and inflammation” (TARO PHARMACEUTICALS INC., priority 2018, dated 2022)

Legend:
Rat DRG = assay: Rat dorsal root ganglion excitability response (EFS, Ca2+ transients); type: cell-based; conditions: Rattus norvegicus; Table 3; electrical field stimulation, Ca5 indicator; read-out: Scoring (EC50, Rat DRG excitability)
In short: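 Adult rat DRG cells cultured for 2 days were loaded with the Ca5 dye 1 h before electrical field stimulation under four protocols. Compounds were tested at six concentrations (typically top 30 μM, 1:3 steps, duplicate), added either 24 h before or directly before EFS. The read-out was the per-well peak/baseline fluorescence ratio change, with imaging used to check for toxicity.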

Human DRG = assay: Human dorsal root ganglion (DRG) excitability response; type: cell-based; conditions: Table 6; Biological Example 3, human DRG; read-out: Scoring (IC50)
Protocol: Human DRGs are transferred into a dissection vessel containing a cold (4° C.), fresh proprietary dissection solution. DRGs are maintained completely submerged in dissection solution followed by dissection by an appropriate method.
Cells are plated into a 96 well plate. Calcium dye (Fluo 8-AM) is loaded in each well for a period of 20 to 25 min, maintaining temperature at ambient. The baseline excitability profile (ability of firing action potentials) of the cells is assessed at both low and high threshold stimulations using optical EFS. Following baseline profiling, cells are subjected to test compounds.
Representative compounds of the invention (i.e., test compounds) are added to cells and the cells are stimulated (using EFS) to induce action potentials at regular intervals, according to the parameters outlined in Table 5. Four concentrations of each compound are utilized and directly injected into separate wells to allow for determination of a dose response (IC50). At the end of the protocol, the nociceptor positive control compound (capsaicin) is perfused into the cells at 200 nM and signal recorded. […]
Recordings are performed in stream mode at 100 Hz for the EFS portion of the above protocol and in time lapse model at 0.2 Hz for the final step utilizing capsaicin. For each concentration tested, the number of cells blocked vs baseline will be counted at different thresholds. […]

Mice (male, C57Bl/6) = assay: Formalin pain assay in mice; type: in vivo
Protocol: Mice (male, C57BL/6) were placed singly in a Perspex chamber for approximately 30 min on three successive days to acclimate and thereby reduce stress-induced behaviors. On the fourth day, the experimental animals received a 25 μl injection of 2.5% formalin beneath the left plantar skin using a 29-gauge syringe. […] The total time spent on flinches/licking/biting of the hind paw was recorded by visual observation for every 5 min period/interval for total observation duration of 60 min in two phases, the early phase (0-5 min) and the late phase (15-40 min). Observers were blinded to the treatment group allocation.
For test compounds, the % protection from 0-60 min was used to assess activity. Scoring for the test compounds was as follows: “A” represents a % protection of 81 to 100%, “B” represents a % protection of 61 to 80%, “C” represents a % protection of 31 to 60% and “D” represents a % protection of 0 to 30%.

[1] = tested on: female Sprague-Dawley rats; assay: Cyclophosphamide-induced cystitis in rats (visceral pain); type: in vivo; conditions: 0.3 to 1.0 mg/kg dose, oral gavage four days; 4 h after cyclophosphamide
Protocol: Representative compounds of the invention (i.e., test compounds) were administered to female Sprague-Dawley rats, for four days by oral gavage in 0.9% saline. Two hours after the fourth dose, the rats were challenged by intraperitoneal administration of cyclophosphamide (150 mg/kg). Referred mechanical sensitivity was measured four hours later by applying a series of eight von Frey filaments to the lower abdomen, three times each for 1-2 seconds with a 5 second interval between applications. Responses were scored (zero-no response; one-response, two-response and change of position, and three-response, change of position and licking the site or vocalization), totaled and the percent of maximal possible nociceptive score calculated. Ibuprofen was used as a reference standard.

[2] = tested on: Rats (female, Sprague-Dawley); assay: Rat ketamine cystitis (visceral pain); type: in vivo
Protocol: Rats (female, Sprague-Dawley) received daily intraperitoneal injections of saline (sham control) or ketamine (50 mg/kg) for 14 days. […] Referred mechanical sensitivity was assessed on Day 7 and Day 14 by application of a series of von Frey filaments to the lower abdomen and the nociceptive threshold was scored.

male Sprague-Dawley rats = assay: Rat chronic prostatitis/chronic pelvic pain (carrageenan); type: in vivo; conditions: Day 3, 30 mg/kg dose, oral gavage QD
Protocol: Representative compounds of the invention (i.e., test compounds) were administered for 11 days by oral gavage in 0.9% saline (3, 10 or 30 mg/kg QD; 5 mL/kg dose volume) to male Sprague-Dawley rats. Carrageenan-mediated chronic prostatitis/chronic pelvic pain (CP/CPPS) established in rats (10 per group) by administration of an intraprostatic injection of carrageenan (˜12.5 μL/lobe of a 30 mg/mL solution) into both ventral prostate lobes, on Day 0. Referred mechanical sensitivity was measured on Days 0, 1, 3 and 7, 2 hours after test compound, or vehicle (saline) administration, by applying 6 von Frey filaments with increasing forces of 0.16-2 g to the scrotal skin area, 3 times each for 1-2 seconds, with a 5-second interval between applications. Responses were scored (zero-no response; one-reaction of the animal, two-jump, and three-licking the site) and expressed as the nociceptive threshold for each day of assessment. Ibuprofen was used as a reference standard.
According to the above assay, Compound Ia-1 restored nociceptive threshold to 65% of baseline on Day 3 at the 30 mg/kg dose as compared to the reference standard, ibuprofen (300 mg/kg), which restored the threshold to 120% of the baseline.

C=C1CC[C@H]2[C@H](CN)[C@@H]([C@@]3(C)Cc4cn[nH]c4C[C@@H]3CO)CC[C@]12C [Ia-1, ((5R,6S)-5-((3aS,4R,5S,7aS)-4-(aminomethyl)-7a-methyl-1-methyleneoctahydro-1H-inden-5-yl)-5-methyl-4,5,6,7-tetrahydro-1H-indazol-6-yl)methanol]
EC50 (Rat DRG): 6 to 15 µM
IC50 (Human DRG): < 2 µM
% inhibition, early phase (neurogenic pain) (Mice (male, C57Bl/6); 30 mg/kg dose, 0-5 min): 59%
% inhibition, late phase (inflammatory pain) (Mice (male, C57Bl/6); 30 mg/kg dose, 15-40 min): 52%
Scoring (% protection from 0-60 min) (Mice (male, C57Bl/6); Table 7, formalin 2.5%, left plantar): B (a % protection of 61 to 80%)
nociceptive threshold, % of baseline (pre-challenge) levels [1]: 70-91%
increase in the nociceptive threshold (relative to unchallenged) ([2]; 1.0 mg/kg dose, PO, QD): 61%
increase in the nociceptive threshold (relative to unchallenged) ([2]; 3.0 mg/kg dose, PO, QD): 69%
increase in the nociceptive threshold (relative to unchallenged) ([2]; 10 mg/kg dose): 85%
nociceptive threshold restored, % of baseline (male Sprague-Dawley rats): 65%
